Measured values reported in patent US20230301958A1, “SATRAPLATIN FOR USE IN THE TREATMENT OF LYMPHOID NEOPLASMS” (priority 2020, published 2023).

Key:
[1] = tested on: DLBCL cell lines; test: CellTiter-Glo luminescent cell viability assay, DLBCL cell lines; format: cell-based, human; conditions: 72h incubation, CTG assay
Protocol: (§1) Hereto, the 50% inhibitory concentration (IC50) was determined in said cancer cell lines using the CellTiter-Glo® (CTG) luminescent cell viability assay after a 72h incubation with different concentrations of the two drugs ranging from 10 nM to 100 uM.
(§2) All cell lines were cultured in the media supplemented with 10-15% FBS, at a temperature of 37° C., 5% CO2 and 95% humidity. Cell viability was measured using the CTG Luminescent Cell Viability Assay by standard procedures. Satraplatin was purchased from MedChemExpress (China) and cisplatin from Qilu Pharm (China), respectively. 1 mM solution of both drugs were established for storage at -20° C. as previously described (Wosikowski K et al., Cancer Chemother Pharmacol (2007) 60(4):589-600).
(§3) Cells were harvested during the logarithmic growth period and count cell number using Count-star. Cell concentrations were adjusted to 4.44×10^4 cells/mL with the respective culture medium. […] Luminescence was recorded using EnVision Multi Label Reader.
(§4) In order to calculate absolute IC50 (EC50), a dose-response curve was fitted using a nonlinear regression model with a sigmoidal dose response. […] The absolute IC50 (EC50) was calculated according to the dose-response curve generated by GraphPad Prism 5.0. The standard deviation was calculated for each dose level and each cell line and is indicated by the bars.

[2] = tested on: B-cell lymphoma cell lines (Burkitt lymphoma, mantle cell lymphoma, DLBCL); test: CellTiter-Glo luminescent cell viability assay, B-cell lymphoma cell lines; format: cell-based, human; conditions: mantle cell lymphoma and DLBCL cell lines, FIGS. 1-3
Protocol: as §1, §2, §3, §4

[3] = tested on: OCI-LY7 cells; test: CellTiter-Glo luminescent cell viability assay, OCI-LY-7; format: cell-based, human; conditions: DLBCL cell line, 72h
Protocol: as §1, §2, §3, §4

[4] = tested on: T-cell lymphoma cell lines; test: CellTiter-Glo luminescent cell viability assay, T-cell lymphoma cell lines; format: cell-based, human; conditions: particularly ALK+ ALCL, FIG. 4A-4D
Protocol: as §1, §2, §3, §4

[5] = in vivo, po; cited from earlier work
[6] = tested on: OCI Ly-3 cell line; test: CellTiter-Glo luminescent cell viability assay, OCI-LY-3; format: cell-based, human; conditions: PCNSL-like DLBCL cell line, FIG. 3K, 72h
Protocol: as §1, §2, §3, §4

[7] = tested on: metastatic prostate cancer; conditions: SPARC trial, patients receiving satraplatin; cited from earlier work
[8] = tested on: multiple myeloma cell lines; test: CellTiter-Glo luminescent cell viability assay, multiple myeloma cell lines; format: cell-based, human; conditions: FIG. 5
Protocol: as §1, §2, §3, §4

[9] = tested on: lymphoma and myeloma cell lines; test: CellTiter-Glo luminescent cell viability assay, panel of 41 lymphoma and multiple myeloma cell lines; format: cell-based, human
Protocol: as §1, §2
Cells were harvested during the logarithmic growth period and count cell number using Count-star. Cell concentrations were adjusted to 4.44×10^4 cells/mL with the respective culture medium. Then, 90 µL cell suspensions were added in triplicate to two 96-well plates (plates A and B) with the final cell density of 4×10^3 cells/well. […] For that purpose, plates were equilibrated at RT for approximately 30 min. Then, 50 µL CTG reagent was added to each well. The content was mixed for 5 min on an orbital shaker to induce cell lysis and the plate incubated at RT for 20 min to stabilize luminescent signal. Luminescence was recorded using EnVision Multi Label Reader.
In order to calculate absolute IC50 (EC50), a dose-response curve was fitted using a nonlinear regression model with a sigmoidal dose response. The formula for calculating surviving rate is: The surviving rate (%) = (LumTest article-LumMedium control)/(LumNon-treated-LumMedium control)×100%. The absolute IC50 (EC50) was calculated according to the dose-response curve generated by GraphPad Prism 5.0. The standard deviation was calculated for each dose level and each cell line and is indicated by the bars.

[10] = in vivo; cited from earlier work

For `N.N.[Cl][Pt][Cl]` [cisplatin], the “IC50 values in DLBCL cell lines” value [1] was “low micromolar or even sub-molar”.

In the case of `CC(=O)[O][Pt]([NH2])([Cl])([Cl])([NH]C1CCCCC1)[O]C(C)=O` [satraplatin, bis (acetato) ammine dichloro (cyclohexylamine) platinum (IV)], the “inducing cell death, compared to cisplatin” value [2] is reported as “at least equivalent to cisplatin”, the “killing of OCI-LY7 cells compared to cisplatin” value [3] is reported as “significantly superior” and the “inducing cell death, compared to cisplatin” value [4] is reported as “at least equivalent to cisplatin”. For the same molecule, the “nephro- or neurotoxicity in clinical trials” value [5] was “no or not relevant nephro- or neurotoxicity”, the “killing of OCI Ly-3” value [6] was “very effectively killed” and the “patients showing a relevant PSA-response (decline of more than 50%)” value [7] was 25%. The “inducing cell death, compared to cisplatin” value [8] was “at least equivalent to cisplatin”, the “IC50 values in DLBCL cell lines” value [1] was “low micromolar or even sub-molar” and the “relative sensitivity of certain cell lines” value ([9]; DOHH2, OCI Ly19, SUDHL5, OCI Ly3, Toledo, Z138, Daudi, SUDHL1, HuT78 cell lines, FIG. 6) was “particularly sensitive”. The “IC 50 values, killing of lymphoma cell lines” value ([9]; FIGS. 1-6, 72h incubation) was “low micromolar concentrations or even lower”, the “sensitivity of all cell lines described” value ([9]; all tested cell lines) was “sensitive” and the CNS penetration [10] was “clinically proven meaningful CNS penetration”.
